{"source": "patent US6989263B1", "about": "“Method for identifying and using compounds that inactivate HIV-1 and other retroviruses by attacking highly conserved zinc fingers in the viral nucleocapsid protein” (The United States of America as represented by the …, priority 1994, dated 2006)", "key": {"[1]": {"test_system": "HIV-1", "conditions": "incubation of HIV-1; cited from earlier work"}, "[2]": {"test_system": "genomic RNA", "conditions": "cited from earlier work"}, "[3]": {"test_system": "lymphocytes", "conditions": "cited from earlier work"}, "[4]": {"biological_target": "HIV-1 CCHC zinc finger array (Human immunodeficiency virus type 1 group M subtype B, UniProt P04591)", "conditions": "incubation of HIV-1; cited from earlier work"}, "[5]": {"biological_target": "T1, HIV-1 (MN) p7NC (Human immunodeficiency virus type 1 group M subtype B, UniProt P05888)", "T1 construct": "The NC protein of HIV-1 (MN) p7NC was expressed in E. coli; made in house; host or cells: E. coli (vector pMAL-c)", "test": "Intrinsic Trp-37 fluorescence quenching of p7NC", "format": "biochemical", "conditions": "Trp-37 fluorescence, zinc-reconstituted p7NC", "from_the_text": "The NC protein of HIV-1 (MN) p7NC was expressed in E. coli. The coding sequence for HIV-1(MN) p7NC was cloned and expressed using an inducible E. coli promoter in the vector pMAL-c (New England Biolabs Inc., Beverly, Mass.). The protein was expressed as a maltose-binding fusion protein and released by proteolysis with Factor Xa. HIV-1(MN) p7NC was purified by HPLC and characterized, including complete amino acid sequence analysis. p7NC was purified by high-pressure liquid chromatography (HPLC) and reconstituted with two equivalents of zinc to generate native protein as described (M. F. Summers et al., Protein Sci. 1, 563 (1992)).\nCoordination of Zn^+2 enhances the intrinsic fluorescence of the single tryptophan (Trp-37) in the second zinc finger. […] The initial phase of the reaction with Cu^+2 (T1/2<20 seconds) gave 70% quenching of the original fluorescence, followed by a much slower phase (T1/2 ca. 6 minutes), resulting in a final limiting quenching of 85%.\nThe first quenching phase was a second order reaction, whereas the second phase was independent of protein concentration or oxidizing species."}, "[6]": {"biological_target": "HV-1 protease (Human immunodeficiency virus type 1 group M subtype B, UniProt P04585)", "conditions": "cited from earlier work"}, "[7]": {"test_system": "proviral DNA synthesis", "conditions": "cited from earlier work"}, "[8]": {"biological_target": "T2, HIV NC protein in intact virus (Human immunodeficiency virus type 1 group M subtype B, UniProt P05888)", "T2 construct": "endogenous in cells; host or cells: intact HIV virions", "test": "Cross-linking of NC protein in intact HIV (non-reducing gel-mobility shift, western blot)", "format": "biochemical, HIV-1", "from_the_text": "Purified concentrated retrovirus and antisera against the purified NC protein of the virus can be used to test the ability of a specific compound to penetrate the virus and react with the NC protein by forming disulfide complexes in the core of the virus. The compound is mixed with the whole retrovirus under reaction conditions appropriate for the compound. The virus is then removed from the reagent by centrifugation and disrupted in, e.g, standard SDS-PAGE sample buffer with (reduced) and without (non-reduced) 2-mercaptoethanol. The viral proteins are then separated by standard SDS-PAGE and the sample examined for the presence or absence of the monomeric NC protein in the non-reduced sample. Depending upon the virus used in the experiment and the conditions of electrophoresis, the NC protein can be visualized by protein staining methods, or by immuno-blot (e.g., western) methods. Compounds which react with the NC protein by attacking the zinc finger complexes and forming disulfide cross-linked products (i.e., which generate multimers in the mobility shift assay) inactivate the virus. Thus, compounds of interest (i.e., those which cause cross-linking) reduced the amount of monomeric NC protein detected.\nIn order to determine whether HIV-1MN was inactivated by NOBA, the virus was incubated with varying concentrations of NOBA (3.0, 0.3, 0.03 and 0 mM) as in Table 1. The reaction products were pelleted by centrifugation, and separated by SDS-PAGE under reducing (2% 2-mercaptoethanol, panel A), or non-reducing conditions (panel B). p7NC was visualized by immunoblot analysis using monospecific rabbit antisera to the purified NC proteins as per L. E. Henderson et al., J. Virol. 66:1856 (1992).\nDisulfide reagents were further tested for their ability to disrupt NC structure in the virus, based on their ability to cause inter-NC cysteine disulfide bonds (i.e., cross-linking) in the intact virus. The formation of inter-NC cysteine disulfides creates NC multimers, which migrate through a non-reducing gel at a different rate than NC monomers, as described above. Intact HIV virus (generally 12.5 μM) was exposed to the specified reagent (generally 25 μM) for varying lengths of time and electrophoresed through a non-reducing SDS-polyacrylamide gel. HIV NC monomers and multimers were visualized by western blot analysis as described above in Example 3. The approximate time required to cross-link one-half of the NC proteins in the virus at the specified reaction conditions was then determined. […] The top number in the cells of the X-link column in Table 2 refers to the approximate time in minutes required for one-half of the HIV NC proteins to become cross-linked."}, "[9]": {"biological_target": "reverse transcriptase enzyme (Human immunodeficiency virus type 1 group M subtype B, UniProt P04585)", "conditions": "cited from earlier work"}}, "data": [{"compound": "NC(=O)c1cccc(N=O)c1", "note": "[NOBA, 3-nitrosobenzamide]", "values": [{"measurement": "viral inactivation", "setting": "[1]", "value": "viral inactivation"}, {"measurement": "levels of genomic RNA in the inactivated virus", "setting": "[2]", "value": "did not influence"}, {"measurement": "bindings of virus to lymphocytes", "setting": "[3]", "value": "did not influence"}, {"measurement": "zinc loss from the HIV-1 CCHC zinc finger array", "setting": "[4]", "value": "loss of zinc"}, {"measurement": "change in intrinsic fluorescence of p7NC on incubation", "setting": "[5]", "value": "rapid biphasic decrease in fluorescence"}, {"measurement": "enzymatic activity of HV-1 protease", "setting": "[6]", "value": "did not influence"}, {"measurement": "proviral DNA synthesis", "setting": "[7]", "value": "blocked"}, {"measurement": "cross-linking of the HIV-1 NC protein in intact virus (gel-mobility shift), in words", "setting": "[8]", "value": "caused a cross-linking of the HIV-1 NC protein"}, {"measurement": "amounts of detected p7NC under non-reducing conditions", "setting": "[8]; HIV-1MN, NOBA 3.0, 0.3, 0.03 mM, immunoblot", "value": "decreased with increasing NOBA concentration"}, {"measurement": "effect on the reverse transcriptase enzyme", "setting": "[9]", "value": "without direct impairment"}]}]}
